Measured values reported in patent US4902814A, “Fluorobenzyl esters” (Imperial Chemical Industries PLC, priority 1986, dated 1990).
Read-outs that look alike come from different tables or passages of the source.

How the values were obtained:
Assay type in all cases: in vivo
[1] = system: Diabrotica balteata (rootworm larvae); test: Mortality test on Diabrotica balteata (DB), residual; details: 72 h, read-out: DB grading of mortality
Procedure: (§1) The activity of the Product was determined using a variety of insect pests. The Product was used in the form of liquid preparations containing from 100 to 500 parts per million (ppm) by weight of the Product. The preparations were made by dissolving the Product in acetone and diluting the solutions with water containing 0.1% by weight of a wetting agent sold under the trade name "SYNPERONIC" NX until the liquid preparations contained the required concentration of the Product. "SYNPERONIC" is a Registered Trade Mark.
(§2) The test procedure adopted with regard to each pest was basically the same and comprised supporting a number of the pests on a medium which was usually a host plant or a foodstuff on which the pests feed, and treating either or both the pests and the medium with the preparations. The mortality of the pests was then assessed at periods usually varying from one to seven days after the treatment.
(§3) The results of the tests are given in Table III for each of the Products, at the rate in parts per million given in the second column, as a grading of mortality designated as A, B or C wherein A indicates 80-100% mortality or knockdown, B indicates 50-79% mortality or knockdown and C indicates less than 50% mortality or knockdown.
(§4) In Table III the pest organism used is designated by a letter code and the pests species, the support medium or food, and the type and duration of test is given in Table II.

[2] = system: Musca domestica (houseflies - adults); test: Mortality test on Musca domestica (MD), contact; details: topical, 24 h, read-out: MD grading of mortality; for mortality at 100 ppm: rate 100 ppm
Procedure: as §1, §2, §3, §4

[3] = system: Blattella germanica (cockroach nymphs); test: Mortality test on Blattella germanica (BG), residual; details: 72 h, read-out: BG grading of mortality
Procedure: as §1, §2, §3, §4

[4] = system: Myzus persicae (aphids); test: Mortality test on Myzus persicae (MP), contact; details: topical, 72 h, read-out: MP grading of mortality; for mortality at 100 ppm: rate 100 ppm
Procedure: as §1, §2, §3, §4

[5] = system: Tetranychus urticae (spider mites - adults); test: Mortality test on Tetranychus urticae adults (TUa), contact; details: topical, 72 h, read-out: TUa grading of mortality; for mortality at 100 ppm: rate 100 ppm
Procedure: as §1, §2, §3, §4
(spider mites - adults)

[6] = system: Spodoptera exigua (lesser army worm - larvae); test: Mortality test on Spodoptera exigua (SP), residual; details: 72 h, read-out: SP grading of mortality
Procedure: as §1, §2, §3, §4
(lesser army worm - larvae)

[7] = system: Heliothis virescens (tobacco budworm - larvae); test: Mortality test on Heliothis virescens (HV), residual; details: 72 h, read-out: HV grading of mortality; for mortality at 100 ppm: rate 100 ppm
Procedure: as §1, §2, §3, §4
(tobacco budworm - larvae)

[8] = system: Tetranychus urticae (spider mites - ova); test: Mortality test on Tetranychus urticae ova (TUe), contact; details: topical, 144 h, read-out: TUe grading of mortality; for mortality at 100 ppm: rate 100 ppm
Procedure: as §1, §2, §3, §4

[9] = system: Nephotettix cincticeps (green leaf hopper - nymphs); test: Mortality test on Nephotettix cincticeps (NC), contact; details: topical, 72 h, rice plant, 3 days, read-out: NC grading of mortality; for mortality at 100 ppm: rate 100 ppm; for mortality at 500 ppm: rate 500 ppm
Procedure: as §1, §2, §3, §4
NC Nephotettix cincticeps

[10] = cotton wool/sugar, contact, 1 day
[11] = Chinese cabbage leaf, contact, 3 days
[12] = French bean leaf, contact, 3 days
[13] = French bean leaf, contact, 6 days
[14] = rate 500 ppm, cotton wool/sugar, contact, 1 day
[15] = rate 500 ppm, Chinese cabbage leaf, contact, 3 days
[16] = rate 500 ppm, cotton leaf, residual, 3 days
[17] = rate 500 ppm, French bean leaf, contact, 6 days
[18] = rate 500 ppm, French bean leaf, contact, 3 days
[19] = rate 500 ppm, filter paper/maize seed, residual, 3 days
[20] = rate 500 ppm, plastic pot, residual, 3 days

Compound: CC1(C)C(C=C(F)F)C1C(=O)OCc1ccc(F)c(Cc2ccccc2)c1 (racemic) [III]
- mortality at 100 ppm ([1]; in Zea mays): 80 to 100%
- mortality at 100 ppm [2, 10]: 80 to 100%
- mortality at 100 ppm [3]: < 50%
- mortality at 100 ppm [4, 11]: 80 to 100%
- mortality at 100 ppm [5, 12]: 50 to 79%
- mortality at 100 ppm ([6]; in Gossypium hirsutum): 80 to 100%
- mortality at 100 ppm ([7]; cotton leaf, residual, 3 days): 80 to 100%
- mortality at 100 ppm [8, 13]: < 50%

Compound: CC1(C)C(C=C(Br)Br)C1C(=O)OCc1ccc(F)c(Cc2ccccc2)c1 (racemic) [X]
- mortality at 500 ppm ([1]; in Zea mays): 80 to 100%
- mortality at 500 ppm [2, 14]: 80 to 100%
- mortality at 500 ppm [3]: 80 to 100%
- mortality at 500 ppm [4, 15]: 80 to 100%
- mortality at 500 ppm ([6]; in Gossypium hirsutum): 80 to 100%
- mortality at 500 ppm [7, 16]: 80 to 100%
- mortality at 500 ppm [8, 17]: < 50%

Compound: CC1(C)[C@H](C(=O)OC(C#N)c2ccc(F)c(Cc3ccccc3)c2)[C@@H]1/C=C(\Cl)C(F)(F)F (relative stereo) [II]
- mortality at 500 ppm ([1]; in Zea mays): 80 to 100%
- mortality at 500 ppm [2, 14]: 80 to 100%
- mortality at 500 ppm [3]: 80 to 100%
- mortality at 500 ppm [4, 15]: 80 to 100%
- mortality at 500 ppm [5, 18]: 80 to 100%
- mortality at 500 ppm ([6]; in Gossypium hirsutum): 80 to 100%
- mortality at 500 ppm [7, 16]: 80 to 100%
- mortality at 500 ppm [8, 17]: 80 to 100%

Compound: CC1(C)[C@H](C=C(Cl)Cl)[C@H]1C(=O)OCc1ccc(F)c(Cc2ccccc2)c1 (relative stereo) [IV]
- mortality at 100 ppm ([1]; in Zea mays): 80 to 100%
- mortality at 100 ppm [2, 10]: 80 to 100%
- mortality at 100 ppm [3]: < 50%
- mortality at 100 ppm [4, 11]: 80 to 100%
- mortality at 100 ppm [9]: 80 to 100%
- mortality at 100 ppm [5, 12]: < 50%
- mortality at 100 ppm ([6]; in Gossypium hirsutum): 80 to 100%
- mortality at 100 ppm ([7]; cotton leaf, residual, 3 days): 80 to 100%
- mortality at 100 ppm [8, 13]: < 50%

Compound: CC1(C)[C@H](C=C(C(F)(F)F)C(F)(F)F)[C@H]1C(=O)OCc1ccc(F)c(Cc2ccccc2)c1 (relative stereo) [IX]
- mortality at 500 ppm ([1]; in Zea mays): 80 to 100%
- mortality at 500 ppm [2, 14]: 80 to 100%
- mortality at 500 ppm [3]: 80 to 100%
- mortality at 500 ppm [4, 15]: 80 to 100%
- mortality at 500 ppm [5, 18]: 80 to 100%
- mortality at 500 ppm ([6]; in Gossypium hirsutum): 80 to 100%
- mortality at 500 ppm [7, 16]: 80 to 100%
- mortality at 500 ppm [8, 17]: < 50%

Compound: CC1(C)[C@H](/C=C(\Cl)C(F)(F)F)[C@@H]1C(=O)OCc1ccc(F)c(Cc2ccccc2)c1 (relative stereo) [I]
- mortality at 500 ppm ([1]; in Zea mays): 80 to 100%
- mortality at 500 ppm [2, 14]: 80 to 100%
- mortality at 500 ppm [3]: 80 to 100%
- mortality at 500 ppm [4, 15]: 80 to 100%
- mortality at 500 ppm [5, 18]: 80 to 100%
- mortality at 500 ppm ([6]; in Gossypium hirsutum): 80 to 100%
- mortality at 500 ppm [7, 16]: 80 to 100%
- mortality at 500 ppm [8, 17]: 80 to 100%

Compound: CC(C)(C)c1ncc([C@@H]2[C@@H](C(=O)OCc3ccc(F)c(Cc4ccccc4)c3)C2(C)C)cn1 (relative stereo) [XI]
- mortality at 500 ppm [1, 19]: 80 to 100%
- mortality at 500 ppm [2]: 50 to 79%
- mortality at 500 ppm [3, 20]: < 50%
- mortality at 500 ppm ([4]; in Brassica rapa): 80 to 100%
- mortality at 500 ppm [5]: 80 to 100%
- mortality at 500 ppm [6, 16]: 80 to 100%
- mortality at 500 ppm ([7]; in Gossypium hirsutum): 80 to 100%
- mortality at 500 ppm ([8]; in Phaseolus vulgaris): 80 to 100%

Compound: CC(C)=CC1C(C(=O)OCc2ccc(F)c(Cc3ccccc3)c2)C1(C)C (centres unmarked) [VIII]
- mortality at 500 ppm ([1]; in Zea mays): 80 to 100%
- mortality at 500 ppm [2, 14]: 80 to 100%
- mortality at 500 ppm [3]: < 50%
- mortality at 500 ppm [4, 15]: 80 to 100%
- mortality at 500 ppm [5, 18]: < 50%
- mortality at 500 ppm ([6]; in Gossypium hirsutum): 80 to 100%
- mortality at 500 ppm [7, 16]: 80 to 100%
- mortality at 500 ppm [8, 17]: < 50%

Compound: CC1(C)C(C(=O)OCc2ccc(F)c(Cc3ccccc3)c2)C1(C)C [VII]
- mortality at 500 ppm [1, 19]: 80 to 100%
- mortality at 500 ppm [2, 14]: 80 to 100%
- mortality at 500 ppm [3, 20]: 80 to 100%
- mortality at 500 ppm [4, 15]: 80 to 100%
- mortality at 500 ppm [6, 16]: < 50%
- mortality at 500 ppm [7, 16]: 80 to 100%
- mortality at 500 ppm [8, 17]: < 50%

Compound: CC1(C)[C@H](C(=O)OC(C#N)c2ccc(F)c(Cc3ccccc3)c2)[C@@H]1/C=C(\Cl)C(F)(F)F (some centres unmarked) [VI]
- mortality at 100 ppm ([1]; in Zea mays): 80 to 100%
- mortality at 100 ppm [2, 10]: 80 to 100%
- mortality at 100 ppm [3]: 80 to 100%
- mortality at 100 ppm [4, 11]: 80 to 100%
- mortality at 100 ppm [9]: 80 to 100%
- mortality at 100 ppm [5, 12]: 80 to 100%
- mortality at 100 ppm ([6]; in Gossypium hirsutum): 80 to 100%
- mortality at 100 ppm ([7]; cotton leaf, residual, 3 days): 80 to 100%
- mortality at 100 ppm [8, 13]: < 50%

Compound: CC1(C)[C@H](C(=O)OCc2ccc(F)c(Cc3ccccc3)c2)[C@@H]1/C=C(\Cl)C(F)(F)F [V]
- mortality at 500 ppm ([1]; in Zea mays): 80 to 100%
- mortality at 500 ppm [2, 14]: 80 to 100%
- mortality at 500 ppm [4, 15]: 80 to 100%
- mortality at 500 ppm [9]: 80 to 100%
- mortality at 500 ppm [5, 18]: 80 to 100%
- mortality at 500 ppm ([6]; in Gossypium hirsutum): 80 to 100%
- mortality at 500 ppm [7, 16]: 80 to 100%
- mortality at 500 ppm [8, 17]: 80 to 100%

Compound: CC(OC(=O)C1C(C=C(Cl)C(F)(F)F)C1(C)C)c1ccc(F)c(Cc2ccccc2)c1 (centres unmarked) [XIII]
- mortality at 500 ppm ([1]; in Zea mays): 80 to 100%
- mortality at 500 ppm [2, 14]: 80 to 100%
- mortality at 500 ppm [3]: 80 to 100%
- mortality at 500 ppm [4, 15]: 80 to 100%
- mortality at 500 ppm [9]: 80 to 100%
- mortality at 500 ppm [5, 18]: 80 to 100%
- mortality at 500 ppm ([6]; in Gossypium hirsutum): 80 to 100%
- mortality at 500 ppm [7, 16]: 80 to 100%

Compound: CC(C)(C)c1ncc(C2C(C(=O)OC(C#N)c3ccc(F)c(Cc4ccccc4)c3)C2(C)C)cn1 (centres unmarked) [XII]
- mortality at 500 ppm [1, 19]: 80 to 100%
- mortality at 500 ppm [2]: < 50%
- mortality at 500 ppm [3, 20]: < 50%
- mortality at 500 ppm ([4]; in Brassica rapa): 50 to 79%
- mortality at 500 ppm [5]: 80 to 100%
- mortality at 500 ppm [6, 16]: < 50%
- mortality at 500 ppm ([7]; in Gossypium hirsutum): < 50%
- mortality at 500 ppm ([8]; in Phaseolus vulgaris): 50 to 79%
